According to PMC12396409, “Screening and hit evaluation of a microbial metabolite library against the pathogenic Plasmodium falciparum and Toxoplasma gondii parasites” (International Journal for Parasitology: Drugs and Drug …, 2025):
Like-named read-outs stand apart in the source and are kept apart here.

Legend:
[1] = test system: T. gondii RH strain (RH-Tub-eYFP) tachyzoites; test: microbe, parasite or virus in culture; format: cell-based, Toxoplasma gondii; details: 72 h; for percent parasite growth at 2 µg/mL: Toxoplasma gondii
[2] = test system: P. falciparum 3D7 parasites; test: P. falciparum growth inhibition assay, 2-cycle (120 h treatment), delayed-death screen and dose-response; format: cell-based, Plasmodium falciparum; details: for activity at 2 µg/mL: Plasmodium falciparum, 3D7, 120 h
[3] = test system: P. falciparum 3D7 parasites; test: P. falciparum growth inhibition assay, 1-cycle (72 h treatment), SYBR DNA staining (library screen at 2 μg/mL and dose-response); format: cell-based, Plasmodium falciparum; details: for activity at 2 µg/mL: Plasmodium falciparum, 3D7, 72 h
[4] = T. gondii, 2 μg/mL, values are growth (% of control)
[5] = T. gondii, screen at 2 μg/mL, replicate 1
[6] = T. gondii, screen at 2 μg/mL, replicate 2
[7] = P. falciparum, 120 h, screen at 2 μg/mL, replicate 1
[8] = P. falciparum, 120 h, screen at 2 μg/mL, replicate 2
[9] = P. falciparum, 72 h, screen at 2 μg/mL, replicate 1
[10] = P. falciparum, 72 h, screen at 2 μg/mL, replicate 2
[11] = library screen at 2 μg/mL, % growth, replicate 1
[12] = library screen at 2 μg/mL, % growth, replicate 2
[13] = library screen at 2 μg/mL, 120 h, % growth, replicate 1
[14] = library screen at 2 μg/mL, 120 h, % growth, replicate 2
[15] = library screen at 2 μg/mL, 72 h, % growth, replicate 1
[16] = library screen at 2 μg/mL, 72 h, % growth, replicate 2

With `CC[C@H]1CCC[C@H](O)[C@@H](C)C(=O)C2=C[C@@H]3[C@@H](C=C[C@@H]4C[C@@H](O[C@@H]5O[C@@H](C)[C@H](OC)[C@@H](OC)[C@H]5OC)C[C@@H]34)[C@@H]2CC(=O)O1` [Spinosyn A pseudoaglycone] the Mean ([1]; T. gondii, 2 μg/mL, mean of both replicates, growth (% of control)) was 30.09, the “Replicate 1” value [1, 4] was 50.49 and the “Replicate 2” value [1, 4] was 9.69. The Tg_72h_%Growth_Rep1 ([1]; T. gondii, parasite screen 2 μg/mL, % growth, replicate 1) was 50.49%, the Tg_72h_%Growth_Rep2 ([1]; T. gondii, parasite screen 2 μg/mL, % growth, replicate 2) was 9.69% and the Pf_120h_%Growth_Rep1 ([2]; P. falciparum, 120 h, parasite screen 2 μg/mL, % growth, replicate 1) was 17.26%. It also gave a Pf_120h_%Growth_Rep2 ([2]; P. falciparum, 120 h, parasite screen 2 μg/mL, % growth, replicate 2) of 10.80%, an IC50 ([3]; 3D7, 72 h treatment, mean ± S.D., n ≥ 3, read-out: IC50 (μM), P. falciparum) greater than 1 µM and a Pf_72h_%Growth_Rep1 ([3]; P. falciparum, 72 h, parasite screen 2 μg/mL, % growth, replicate 1) of 8.11%. For the same molecule, the Pf_72h_%Growth_Rep2 ([3]; P. falciparum, 72 h, parasite screen 2 μg/mL, % growth, replicate 2) was -6.27%.
`CC(/C=C/C(=O)NO[C@@H]1O[C@H](CO)[C@@H](O)[C@H](O)[C@H]1O)=C\[C@@H](C)C(=O)c1ccc(N(C)C)cc1` [Trichostatin C] showed a Tg_72h_%Growth_Rep1 [1, 5] of 87.04%, a Tg_72h_%Growth_Rep2 [1, 6] of 108.99% and a Pf_120h_%Growth_Rep1 [2, 7] of 157.32%. For the same molecule, the Pf_120h_%Growth_Rep2 [2, 8] was 88.61%, the Pf_72h_%Growth_Rep1 [3, 9] was 75.18% and the Pf_72h_%Growth_Rep2 [3, 10] was 84.35%.
`C=C1CCO[C@]2([C@@H](O)[C@@](C)(O)COC(=O)c3ccccc3)NC(=O)[C@@]1(O)NC2=O` [Bicyclomycin benzoate] was tested, and the Tg_72h_%Growth_Rep1 [1, 11] was 81.93%, the Tg_72h_%Growth_Rep2 [1, 12] was 95.48% and the Pf_120h_%Growth_Rep1 [2, 13] was 148.77%. For the same molecule, the Pf_120h_%Growth_Rep2 [2, 14] was 99.84%, the Pf_72h_%Growth_Rep1 [3, 15] was 94.43% and the Pf_72h_%Growth_Rep2 [3, 16] was 88.43%.
For `CC1OC(=O)C2CC3CCCCC3C(C=CC3CCCC(C)N3C)C12` (stereo not shown) [BIA-H1744], the Tg_72h_%Growth_Rep1 ([1]; T. gondii RH, library screen at 2 μg/mL, % growth, replicate 1) was 122.85%, the Tg_72h_%Growth_Rep2 ([1]; T. gondii RH, library screen at 2 μg/mL, % growth, replicate 2) was 95.17% and the Pf_120h_%Growth_Rep1 ([2]; P. falciparum 3D7, 120 h, library screen at 2 μg/mL, % growth, replicate 1) was 64.50%. The Pf_120h_%Growth_Rep2 ([2]; P. falciparum 3D7, 120 h, library screen at 2 μg/mL, % growth, replicate 2) was 86.77%, the Pf_72h_%Growth_Rep1 ([3]; P. falciparum 3D7, 72 h, library screen at 2 μg/mL, % growth, replicate 1) was 66.16% and the Pf_72h_%Growth_Rep2 ([3]; P. falciparum 3D7, 72 h, library screen at 2 μg/mL, % growth, replicate 2) was 101.99%.
Molecule `O=C(O)/C=C/c1ccc(O)c(O)c1` [Caffeic acid] has a percent parasite growth at 2 µg/mL ([1]; T. gondii, screen at 2 μg/mL, replicate 1, read-out: Tg_72h_%Growth_Rep1) of 101%, a percent parasite growth at 2 µg/mL ([1]; T. gondii, screen at 2 μg/mL, replicate 2, read-out: Tg_72h_%Growth_Rep2) of 88.3% and an activity at 2 µg/mL ([2]; P. falciparum, 120 h, screen at 2 μg/mL, replicate 1, read-out: Pf_120h_%Growth_Rep1) of 144%. It also gave an activity at 2 µg/mL ([2]; P. falciparum, 120 h, screen at 2 μg/mL, replicate 2, read-out: Pf_120h_%Growth_Rep2) of 88.4%, an activity at 2 µg/mL ([3]; P. falciparum, 72 h, screen at 2 μg/mL, replicate 1, read-out: Pf_72h_%Growth_Rep1) of 83.7% and an activity at 2 µg/mL ([3]; P. falciparum, 72 h, screen at 2 μg/mL, replicate 2, read-out: Pf_72h_%Growth_Rep2) of 86%.
Work on `O=C1c2c(O)cc(O)cc2OC1(O)Cc1ccc(O)c(O)c1` (stereo not shown) [Alphitonin] yielded a Tg_72h_%Growth_Rep1 [1, 11] of 106.55%, a Tg_72h_%Growth_Rep2 [1, 12] of 96.34% and a Pf_120h_%Growth_Rep1 [2] of 96.34%. The Pf_120h_%Growth_Rep2 [2, 14] was 94.83%, the Pf_72h_%Growth_Rep1 [3, 15] was 88.31% and the Pf_72h_%Growth_Rep2 [3, 16] was 93.84%.
Molecule `COc1cc(-c2ccccn2)nc(/C=N/O)c1SC` [Collismycin] has a Tg_72h_%Growth_Rep1 [1, 5] of -1.50%, a Tg_72h_%Growth_Rep2 [1, 6] of 0.69% and a Pf_120h_%Growth_Rep1 [2, 7] of -4.02%. For the same molecule, the Pf_120h_%Growth_Rep2 [2, 8] was 3.02%, the Pf_72h_%Growth_Rep1 [3, 9] was 3.71% and the Pf_72h_%Growth_Rep2 [3, 10] was 8.55%.
In the case of `CN(C)[C@@H]1C(=O)C(C(=O)NCN2CCN(CCO)CC2)=C(O)[C@@]2(O)C(=O)C3=C(O)c4c(O)cccc4[C@@](C)(O)[C@H]3C[C@@H]12` [BIA-P1473], the Tg_72h_%Growth_Rep1 ([1]; T. gondii, parasite screen at 2 μg/mL, % growth, replicate 1) is reported as 118.64%, the Tg_72h_%Growth_Rep2 ([1]; T. gondii, parasite screen at 2 μg/mL, % growth, replicate 2) is reported as 93.61% and the Pf_120h_%Growth_Rep1 ([2]; P. falciparum 3D7, 120 h, parasite screen at 2 μg/mL, % growth, replicate 1) is reported as 88.47%. For the same molecule, the Pf_120h_%Growth_Rep2 ([2]; P. falciparum 3D7, 120 h, parasite screen at 2 μg/mL, % growth, replicate 2) was 132.29%, the Pf_72h_%Growth_Rep1 ([3]; P. falciparum 3D7, 72 h, parasite screen at 2 μg/mL, % growth, replicate 1) was 83.77% and the Pf_72h_%Growth_Rep2 ([3]; P. falciparum 3D7, 72 h, parasite screen at 2 μg/mL, % growth, replicate 2) was 98.47%.
`CC(=O)[C@H]1c2c(c(O)c3c(O)cccc3c2-c2c3c(c(O)c4c(O)cccc24)C(=O)C[C@](C)(O)[C@H]3C(C)=O)C(=O)C[C@]1(C)O` [A 39183A] was tested, and the Tg_72h_%Growth_Rep1 [1, 11] was 90.59%, the Tg_72h_%Growth_Rep2 [1, 12] was 100.22% and the Pf_120h_%Growth_Rep1 [2, 13] was 5.28%. It also gave a Pf_120h_%Growth_Rep2 [2, 14] of -2.60%, a Pf_72h_%Growth_Rep1 [3, 15] of 2.40% and a Pf_72h_%Growth_Rep2 [3, 16] of 2.28%.
